pIC50: −log10 of the molar value.

One assay concerns MOLM-13 cells. Kind of assay: Cell proliferation assay MOLM-13, method 1 (alamarBlue). The format is cell-based. As to conditions: Homo sapiens, acute myeloid leukaemia cells, 4000 cells/well, 96-well, 96 hours. Here is the method: (§1) In accordance with the invention, the ability of the substances to inhibit cell proliferation was determined. Cell viability was determined by means of the alamarBlue® reagent (Invitrogen) in a Victor X3 Multilabel Reader (Perkin Elmer). The excitation wavelength was 530 nm and the emission wavelength […].
The MOLM-13 cells (DSMZ, ACC 554) were seeded at a concentration of 4000 cells/well in 100 μl of growth medium (RPMI1640, 10% FCS) on 96-well microtitre plates (method 1).
(§2) After overnight incubation at 37° C., the fluorescence values (CI values) were determined. Then the plates were treated with various substance dilutions (1E-5 M, 3E-6 M, 1E-6 M, 3E-7 M, 1E-7 M, 3E-8 M, 1E-8 M) and incubated at 37° C. over 96 hours (MOLM-13, B16F10, CHL-1 cells) or 120 hours (MOLP-8 cells). Subsequently, the fluorescence values were determined (CO values). For the data analysis, the CI values were subtracted from the CO values and the results were compared between cells which had been treated with various dilutions of the substance or only with buffer solution. The IC50 values (substance concentration needed for 50% inhibition of cell proliferation) were calculated therefrom.
(§3) The substances were tested in the cell lines in Table 2, which represent the indications specified by way of example: […]

For another assay, the system named is MOLP-8 cells. The experiment in a line: Cell proliferation assay MOLP-8 (alamarBlue). The format is cell-based. To be noted: Homo sapiens, multiple myeloma cells, 120 hours. Here is the method: as §1
The MOLP-8 cells (DSMZ, ACC 569) were seeded at a concentration of 4000 cells/well in 100 μl of growth medium (RPMI1640, 20% FCS) on 96-well microtitre plates.
as §2, §3

In assay [1] the target is T1, BRD4 bromo domain 1 [BRD4(1)] (Homo sapiens, UniProt O60885).
T1 construct: N-terminally His6-tagged BRD4(1) (amino acids 67-152); made in house; host or cells: E. coli
Kind of assay: BRD4(1)/acetylated peptide H4 TR-FRET binding assay. To be noted: His6-BRD4(1) (aa 67-152) vs acetylated histone H4 peptide. An excerpt: To assess the BRD4(1) binding strength of the substances described in this application, the ability thereof to inhibit the interaction between BRD4(1) and acetylated histone H4 in a dose-dependent manner was quantified.
For this purpose, a time-resolved fluorescence resonance energy transfer (TR-FRET) assay was used, which measures the binding between N-terminally His6-tagged BRD4(1) (amino acids 67-152) and a synthetic acetylated histone H4 (Ac-H4) peptide with sequence GRGK(Ac)GGK(Ac)GLGK(Ac)GGAK(Ac)RHGSGSK-biotin. The recombinant BRD4(1) protein produced in-house according to Filippakopoulos et al., Cell, 2012, 149:214-231 was expressed in E. coli and purified by means of (Ni-NTA) affinity and (Sephadex G-75) size exclusion chromatography. The Ac-H4 peptide can be purchased, for example, from Biosyntan (Berlin, Germany).
In the assay, typically 11 different concentrations of each substance (0.1 nM, 0.33 nM, 1.1 nM, 3.8 nM, 13 nM, 44 nM, 0.15 μM, 0.51 μM, 1.7 μM, 5.9 μM and 20 μM) were analysed as duplicates on the same microtitre plate. For this purpose, 100-fold concentrated solutions in DMSO were prepared by serial dilutions (1:3.4) of a 2 mM stock solution into a clear, 384-well microtitre plate (Greiner Bio-One, Frickenhausen, Germany). From this, 50 nl were transferred into a black test plate (Greiner Bio-One, Frickenhausen, Germany). The test was started by the addition of 2 μl of a 2.5-fold concentrated BRD4(1) solution (final concentration typically 10 nM in the 5 μl of reaction volume) in aqueous assay buffer [50 mM HEPES pH 7.5, 50 mM sodium chloride (NaCl), 0.25 mM CHAPS and 0.05% serum albumin (BSA)] to the substances in the test plate. This was followed by a 10-minute incubation step at 22° C. for the pre-equilibration of putative complexes between BRD4(1) and the substances. Subsequently, 3 μl of a solution of 1.67 times the concentration (in assay buffer) consisting of Ac-H4 peptide (83.5 nM) and TR-FRET detection reagents [16.7 nM anti-6His-XL665 and 3.34 nM streptavidin cryptate (both from Cisbio Bioassays, Codolet, France), and 668 mM potassium fluoride (KF)] were added.
The mixture was then incubated in the dark at 22° C. for one hour and then at 4° C. for at least 3 hours and for no longer than overnight. The formation of BRD4(1)/Ac-H4 complexes was determined by the measurement of the resonance energy transfer from the streptavidin-Eu cryptate to the anti-6His-XL665 antibody present in the reaction. For this purpose, the fluorescence emission was measured at 620 nm and 665 nm after excitation at 330-350 nm in a TR-FRET measuring instrument, for example a Rubystar or Pherastar (both from BMG Lab Technologies, Offenburg, Germany) or a Viewlux (Perkin-Elmer). The ratio of the emissions at 665 nm and at 622 nm was taken as an indicator of the amount of BRD4(1)/Ac-H4 complexes formed.
The data (ratios) obtained were normalized, with 0% inhibition corresponding to the mean from the measurements for a set of controls (typically 32 data points) in which all the reagents were present. In these, in place of test substances, 50 nl of DMSO (100%) were used. Inhibition of 100% corresponded to the mean from the measurements for a set of controls (typically 32 data points) in which all the reagents except BRD4(1) were present. The IC50 was determined by regression analysis based on a 4-parameter equation (minimum, maximum, IC50, Hill; Y=Max+(Min−Max)/(1+(X/IC50)Hill).

For the compound `CCOC(=O)N=S(C)(=O)c1cccc(Nc2ccc3c(n2)N(C2CCOCC2)[C@H](C)C(=O)N3C)c1` (mixture of isomers) [Example 10, Ethyl [(3-{[(3R)-1,3-dimethyl-2-oxo-4-(tetrahydro-2H-pyran-4-yl)-1,2,3,4-tetrahydropyrido[2,3-b]pyrazin-6-yl]amino}phenyl)(methyl)oxido-λ^6-sulphanylidene]carbamate], the pIC50 is 6.43 in the assay with MOLM-13 cells, 6.55 with MOLP-8 cells and 5.44 in assay [1].
`CC(C)S(=O)(=O)c1cccc(Nc2ccc3c(n2)N(C2CCN(C)CC2)[C@H](C)C(=O)N3C)c1` [Example 19, (3R)-6-{[3-(Isopropylsulphonyl)phenyl]amino}-1,3-dimethyl-4-(1-methylpiperidin-4-yl)-3,4-dihydropyrido[2,3-b]pyrazin-2(1H)-one]: the negative logarithm of the IC50 (pIC50) with MOLM-13 cells was 7.89; in assay [1], 7.82.
Consider `CC(C)S(=O)(=O)c1ccc(OC(F)(F)F)c(Nc2ccc3c(n2)N(C2CCN(C)CC2)[C@H](C)C(=O)N3C)c1` [Example 20, (3R)-6-{[5-(Isopropylsulphonyl)-2-(trifluoromethoxy)phenyl]amino}-1,3-dimethyl-4-(1-methylpiperidin-4-yl)-3,4-dihydropyrido[2,3-b]pyrazin-2(1H)-one], for which the pIC50 in the assay with MOLM-13 cells is 7.72; in assay [1], 7.74.
The like results for `COc1ccc(S(=O)(=O)C(F)(F)F)cc1Nc1ccc2c(n1)N(C1CCN(C)CC1)[C@H](C)C(=O)N2C` [Example 21, (3R)-6-({2-Methoxy-5-[(trifluoromethyl)sulphonyl]phenyl}amino)-1,3-dimethyl-4-(1-methylpiperidin-4-yl)-3,4-dihydropyrido[2,3-b]pyrazin-2(1H)-one] were, in that order, 7.80 and 7.64.
In the case of `COc1ccc(S(=O)(=O)C2CCOCC2)cc1Nc1ccc2c(n1)N(C1CCN(C)CC1)[C@H](C)C(=O)N2C` [Example 22, (3R)-6-{[2-Methoxy-5-(tetrahydro-2H-pyran-4-ylsulphonyl)phenyl]amino}-1,3-dimethyl-4-(1-methylpiperidin-4-yl)-3,4-dihydropyrido[2,3-b]pyrazin-2(1H)-one], the pIC50 is 7.00 in the assay with MOLM-13 cells and 7.64 in assay [1].
The like results for `COc1ccc(S(=O)(=O)C(C)C)cc1Nc1ccc2c(n1)N(C1CCNCC1)[C@H](C)C(=O)N2C` [Example 26, (3R)-6-{[5-(Isopropylsulphonyl)-2-methoxyphenyl]amino}-1,3-dimethyl-4-(piperidin-4-yl)-3,4-dihydropyrido[2,3-b]pyrazin-2(1H)-one] were, in that order, 8.00 and 7.72.
The corresponding values for `COc1ccc(S(C)(=O)=O)cc1Nc1ccc2c(n1)N(C1CCNCC1)[C@H](C)C(=O)N2C` [Example 27, (3R)-6-{[2-Methoxy-5-(methylsulphonyl)phenyl]amino}-1,3-dimethyl-4-(piperidin-4-yl)-3,4-dihydropyrido[2,3-b]pyrazin-2(1H)-one] are 7.16 and 7.27.
The corresponding values for `COc1ccc(S(=O)(=O)C(C)C)cc1Nc1ccc2c(n1)N(C1CCN(CC(F)(F)F)CC1)[C@H](C)C(=O)N2C` [Example 28, (3R)-6-{[5-(Isopropylsulphonyl)-2-methoxyphenyl]amino}-1,3-dimethyl-4-[1-(2,2,2-trifluoroethyl)piperidin-4-yl]-3,4-dihydropyrido[2,3-b]pyrazin-2(1H)-one] are 7.59 and 7.62.
With `COc1ccc(S(=O)(=O)C(C)C)cc1Nc1ccc2c(n1)N(C1CCN(CC(F)F)CC1)[C@H](C)C(=O)N2C` [Example 29, (3R)-4-[1-(2,2-Difluoroethyl)piperidin-4-yl]-6-{[5-(isopropylsulphonyl)-2-methoxyphenyl]amino}-1,3-dimethyl-3,4-dihydropyrido[2,3-b]pyrazin-2(1H)-one], the negative-log IC50 (pIC50) in assay [1] was 7.62.
For the compound `COc1ccc(S(=O)(=O)C(C)C)cc1Nc1ccc2c(n1)N(C1CCN(CCC(F)(F)F)CC1)[C@H](C)C(=O)N2C` [Example 31, (3R)-6-{[5-(Isopropylsulphonyl)-2-methoxyphenyl]amino}-1,3-dimethyl-4-[1-(3,3,3-trifluoropropyl)piperidin-4-yl]-3,4-dihydropyrido[2,3-b]pyrazin-2(1H)-one], the negative-log IC50 (pIC50) is 7.85 in the assay with MOLM-13 cells and 7.64 in assay [1].
The like results for `COc1ccc(S(=O)(=O)C2CCOCC2)cc1Nc1ccc2c(n1)N(C1CCOCC1)[C@H](C)C(=O)N2C` [Example 34, (3R)-6-{[2-Methoxy-5-(tetrahydro-2H-pyran-4-ylsulphonyl)phenyl]amino}-1,3-dimethyl-4-(tetrahydro-2H-pyran-4-yl)-3,4-dihydropyrido[2,3-b]pyrazin-2(1H)-one] were, in that order, 7.49 and 7.66.
The like results for `COc1ccc(S(=O)(=O)C2CCC2)cc1Nc1ccc2c(n1)N(C1CCOCC1)[C@H](C)C(=O)N2C` [Example 35, (3R)-6-{[5-(Cyclobutylsulphonyl)-2-methoxyphenyl]amino}-1,3-dimethyl-4-(tetrahydro-2H-pyran-4-yl)-3,4-dihydropyrido[2,3-b]pyrazin-2(1H)-one] were, in that order, 7.92 and 7.49.
The like results for `CC(C)S(=O)(=O)c1ccc(OC(F)(F)F)c(Nc2ccc3c(n2)N(C2CCOCC2)[C@H](C)C(=O)N3C)c1` [Example 38, (3R)-6-{[5-(Isopropylsulphonyl)-2-(trifluoromethoxy)phenyl]amino}-1,3-dimethyl-4-(tetrahydro-2H-pyran-4-yl)-3,4-dihydropyrido[2,3-b]pyrazin-2(1H)-one] were, in that order, 7.49 and 7.35.
With `COc1ccc(S(=O)(=O)C(F)(F)F)cc1Nc1ccc2c(n1)N(C1CCOCC1)[C@H](C)C(=O)N2C` [Example 39, (3R)-6-({2-Methoxy-5-[(trifluoromethyl)sulphonyl]phenyl}amino)-1,3-dimethyl-4-(tetrahydro-2H-pyran-4-yl)-3,4-dihydropyrido[2,3-b]pyrazin-2(1H)-one], the negative-log IC50 (pIC50) with MOLM-13 cells was 6.86; in assay [1] it was 7.34.
`COc1cc(Nc2ccc3c(n2)N(C2CCOCC2)[C@H](C)C(=O)N3C)cc(S(C)(=O)=O)c1` [Example 40, (3R)-6-{[3-Methoxy-5-(methylsulphonyl)phenyl]amino}-1,3-dimethyl-4-(tetrahydro-2H-pyran-4-yl)-3,4-dihydropyrido[2,3-b]pyrazin-2(1H)-one]: the pIC50 in the assay on MOLM-13 cells was 6.92; in assay [1], 7.20.

(Values after patent US20170121322A1, “BET-PROTEIN INHIBITING 3,4-DIHYDROPYRIDO[2,3-B]PYRAZINONES WITH META-SUBSTITUTED AROMATIC AMINO- OR ETHER GROUPS” (Bayer Pharma Aktiengesellschaft, priority 2014, published 2017).)
